IC50 data for 30 compounds are collected here from patent publication US20240002391A1, “4-ALKOXYPYRROLO[2,1-F][1,2,4]TRIAZINES AND PREPARATION AND USES THEREOF” (BioSplice Therapeutics, Inc., priority 2022, published 2024).

The target of the assay is recombinant DYRK1A kinase (Homo sapiens (Human), UniProt Q13627). The assay can be described thus: DYRK1A kinase assay (Ser/Thr 18 peptide Z-lyte FRET). It counts as biochemical. As to conditions: DYRK1A kinase activity, Z-lyte Ser/Thr 18 peptide, 15 μM ATP; method text calls the value IC50; read-out: EC50 (the source's name). In a few lines:
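Steps: combine 0.25 μg/mL kinase, 15 μM ATP and 4 μM peptide with test compound; incubate 1 h at room temperature; add diluted development reagent for another hour; read coumarin and fluorescein emission at Ex 400. The emission ratio yields percent phosphorylation, from which IC50 is derived.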
As for `COc1nc(N[C@@H]2CN(C)C[C@@H]2F)nn2ccc(-c3cnc4nccn4c3)c12` [Compound 262, N-((3R,4S)-4-Fluoro-1-methylpyrrolidin-3-yl)-5-(imidazo[1,2-a]pyrimidin-6-yl)-4-methoxypyrrolo[2,1-f][1,2,4]triazin-2-amine], the IC50 worked out at 3.2 nM.

Regarding `CC(=O)N1C[C@H](F)[C@H](Nc2nc(O)c3c(-c4cnc5nccn5c4)ccn3n2)C1` [Compound 263, 1-((3S,4R)-3-Fluoro-4-((4-hydroxy-5-(imidazo[1,2-a]pyrimidin-6-yl)pyrrolo[2,1-f][1,2,4]triazin-2-yl)amino)pyrrolidin-1-yl)ethan-1-one], the IC50 is 112 nM.

On to `COc1nc(N[C@@H]2CN(C(C)=O)C[C@@H]2F)nn2ccc(-c3cnc4nccn4c3)c12` [Compound 264, 1-((3S,4R)-3-Fluoro-4-((5-(imidazo[1,2-a]pyrimidin-6-yl)-4-methoxypyrrolo[2,1-f][1,2,4]triazin-2-yl)amino)pyrrolidin-1-yl)ethan-1-one], for which the IC50 was 3.5 nM.

Regarding `Oc1nc(N[C@@H]2CN(C3COC3)C[C@@H]2F)nn2ccc(-c3cnc4nccn4c3)c12` [Compound 265, 2-(((3R,4S)-4-fluoro-1-(oxetan-3-yl)pyrrolidin-3-yl)amino)-5-(imidazo[1,2-a]pyrimidin-6-yl)pyrrolo[2,1-f][1,2,4]triazin-4-ol], the IC50 came to 58.9 nM.

For `COc1nc(N[C@@H]2CN(C3COC3)C[C@@H]2F)nn2ccc(-c3cnc4nccn4c3)c12` [Compound 266, N-((3R,4S)-4-Fluoro-1-(oxetan-3-yl)pyrrolidin-3-yl)-5-(imidazo[1,2-a]pyrimidin-6-yl)-4-methoxypyrrolo[2,1-f][1,2,4]triazin-2-amine], the IC50 is 2.9 nM.

In the case of `COc1nc(N[C@@H]2CCN(C)C[C@@H]2F)nn2ccc(-c3cnc4nccn4c3)c12` [Compound 267, N-((3S,4R)-3-Fluoro-1-methylpiperidin-4-yl)-5-(imidazo[1,2-a]pyrimidin-6-yl)-4-methoxypyrrolo[2,1-f][1,2,4]triazin-2-amine], the IC50 was 4.8 nM.

`COc1nc(N[C@H]2CCN(C)C[C@H]2F)nn2ccc(-c3cnc4nccn4c3)c12` [Compound 268, N-((3R,4S)-3-Fluoro-1-methylpiperidin-4-yl)-5-(imidazo[1,2-a]pyrimidin-6-yl)-4-methoxypyrrolo[2,1-f][1,2,4]triazin-2-amine]: the IC50 amounted to 5 nM.

For the compound `COc1nc(N[C@@H]2CCN(C3COC3)C[C@@H]2F)nn2ccc(-c3cnc4nccn4c3)c12` [Compound 269, N-((3S,4R)-3-Fluoro-1-(oxetan-3-yl)piperidin-4-yl)-5-(imidazo[1,2-a]pyrimidin-6-yl)-4-methoxypyrrolo[2,1-f][1,2,4]triazin-2-amine], the IC50 worked out at 2.3 nM.

On to `COc1nc(N[C@H]2CCN(C3COC3)C[C@H]2F)nn2ccc(-c3cnc4nccn4c3)c12` [Compound 270, N-((3R,4S)-3-Fluoro-1-(oxetan-3-yl)piperidin-4-yl)-5-(imidazo[1,2-a]pyrimidin-6-yl)-4-methoxypyrrolo[2,1-f][1,2,4]triazin-2-amine], for which the IC50 turned out to be 5.1 nM.

Turning to `COc1nc(NC2CCOCC2)nn2ccc(-c3cnc4nccn4c3)c12` [Compound 271, 5-(Imidazo[1,2-a]pyrimidin-6-yl)-4-methoxy-N-(tetrahydro-2H-pyran-4-yl)pyrrolo[2,1-f][1,2,4]triazin-2-amine], the IC50 was 3.8 nM.

As to `COc1nc(NC2CCC3(CC2)CN(C(C)=O)C3)nn2ccc(-c3cnc4nccn4c3)c12` [Compound 273, 1-(7-((5-(Imidazo[1,2-a]pyrimidin-6-yl)-4-methoxypyrrolo[2,1-f][1,2,4]triazin-2-yl)amino)-2-azaspiro[3.5]nonan-2-yl)ethan-1-one], the IC50 is 1.8 nM.

As to `COc1nc(N[C@H]2CC[C@]3(CCO3)CC2)nn2ccc(-c3cnc4nccn4c3)c12` [Compound 274, 5-(Imidazo[1,2-a]pyrimidin-6-yl)-4-methoxy-N-((4s,7s)-1-oxaspiro[3.5]nonan-7-yl)pyrrolo[2,1-f][1,2,4]triazin-2-amine], the IC50 came to 1 nM.

As to `COc1nc(N[C@H]2CC[C@@]3(CCO3)CC2)nn2ccc(-c3cnc4nccn4c3)c12` [Compound 275, 5-(Imidazo[1,2-a]pyrimidin-6-yl)-4-methoxy-N-((4r,7r)-1-oxaspiro[3.5]nonan-7-yl)pyrrolo[2,1-f][1,2,4]triazin-2-amine], the IC50 was found to be 3.4 nM.

Take `COc1nc(N[C@H]2C[C@@](C)(O)C2)nn2ccc(-c3cc4ncccc4[nH]3)c12` [Compound 277, cis-3-((4-Methoxy-5-(1H-pyrrolo[3,2-b]pyridin-2-yl)pyrrolo[2,1-f][1,2,4]triazin-2-yl)amino)-1-methylcyclobutan-1-ol]: the IC50 was found to be 63.3 nM.

As for `COc1nc(N[C@H]2CC[C@](C)(O)CC2)nn2ccc(-c3cc4ncccc4[nH]3)c12` [Compound 280, trans-4-((4-Methoxy-5-(1H-pyrrolo[3,2-b]pyridin-2-yl)pyrrolo[2,1-f][1,2,4]triazin-2-yl)amino)-1-methylcyclohexan-1-ol], the IC50 came to 33.4 nM.

Consider `COc1nc(N[C@H]2C[C@@](C)(O)C2)nn2ccc(-c3cc4cnccc4[nH]3)c12` [Compound 281, cis-3-((4-Methoxy-5-(1H-pyrrolo[3,2-c]pyridin-2-yl)pyrrolo[2,1-f][1,2,4]triazin-2-yl)amino)-1-methylcyclobutan-1-ol], for which the IC50 is 6.6 nM.

In the case of `COc1nc(N[C@H]2CC[C@](C)(O)CC2)nn2ccc(-c3cc4cnccc4[nH]3)c12` [Compound 282, trans-4-((4-Methoxy-5-(1H-pyrrolo[3,2-c]pyridin-2-yl)pyrrolo[2,1-f][1,2,4]triazin-2-yl)amino)-1-methylcyclohexan-1-ol], the IC50 amounted to 13.6 nM.

`COc1nc(N[C@H]2C[C@@](C)(O)C2)nn2ccc(-c3cc4ccncc4[nH]3)c12` [Compound 283, cis-3-((4-Methoxy-5-(1H-pyrrolo[2,3-c]pyridin-2-yl)pyrrolo[2,1-f][1,2,4]triazin-2-yl)amino)-1-methylcyclobutan-1-ol]: the IC50 is 110 nM.

Regarding `COc1nc(N[C@H]2CC[C@](C)(O)CC2)nn2ccc(-c3cc4ccncc4[nH]3)c12` [Compound 284, trans-4-((4-Methoxy-5-(1H-pyrrolo[2,3-c]pyridin-2-yl)pyrrolo[2,1-f][1,2,4]triazin-2-yl)amino)-1-methylcyclohexan-1-ol], the IC50 was determined as 235 nM.

As for `COc1nc(N[C@H]2C[C@H](C(C)(C)O)C2)nn2ccc(-c3ccc4ncccc4c3)c12` [Compound 287, 2-(trans-3-((4-methoxy-5-(quinolin-6-yl)pyrrolo[2,1-f][1,2,4]triazin-2-yl)amino)cyclobutyl)propan-2-ol], the IC50 came out at 2.2 nM.

Consider `COc1nc(N[C@H]2C[C@@](C)(NC(C)=O)C2)nn2ccc(-c3ccc4ncccc4c3)c12` [Compound 288, N-(cis-3-((4-Methoxy-5-(quinolin-6-yl)pyrrolo[2,1-f][1,2,4]triazin-2-yl)amino)-1-methylcyclobutyl)acetamide], for which the IC50 amounted to 2.6 nM.

Consider `COc1nc(N[C@H]2C[C@](C)(C(=O)N(C)C)C2)nn2ccc(-c3ccc4ncccc4c3)c12` [Compound 290, trans-3-((4-Methoxy-5-(quinolin-6-yl)pyrrolo[2,1-f][1,2,4]triazin-2-yl)amino)-N,N,1-trimethylcyclobutane-1-carboxamide], for which the IC50 turned out to be 1.8 nM.

As to `COc1nc(NC2CCN(CC(F)F)CC2)nn2ccc(-c3ccc4ncccc4c3)c12` [Compound 304, N-(1-(2,2-Difluoroethyl)piperidin-4-yl)-4-methoxy-5-(quinolin-6-yl)pyrrolo[2,1-f][1,2,4]triazin-2-amine], the IC50 was 14.3 nM.

As for `COc1nc(NC2CCN(CC(F)(F)F)CC2)nn2ccc(-c3ccc4ncccc4c3)c12` [Compound 305, 4-Methoxy-5-(quinolin-6-yl)-N-(1-(2,2,2-trifluoroethyl)piperidin-4-yl)pyrrolo[2,1-f][1,2,4]triazin-2-amine], the IC50 was found to be 80.7 nM.

Take `COc1nc(NC2CCN(C3CC(F)(F)C3)CC2)nn2ccc(-c3ccc4ncccc4c3)c12` [Compound 306, N-(1-(3,3-Difluorocyclobutyl)piperidin-4-yl)-4-methoxy-5-(quinolin-6-yl)pyrrolo[2,1-f][1,2,4]triazin-2-amine]: the IC50 amounted to 28.2 nM.

Turning to `COc1nc(N[C@H]2CCN(CCF)C[C@H]2F)nn2ccc(-c3ccc4ncccc4c3)c12` [Compound 314, N-((3R,4S)-3-Fluoro-1-(2-fluoroethyl)piperidin-4-yl)-4-methoxy-5-(quinolin-6-yl)pyrrolo[2,1-f][1,2,4]triazin-2-amine], the IC50 amounted to 4.1 nM.

As for `COc1nc(N[C@@H]2CCN(C)CC2(F)F)nn2ccc(-c3ccc4ncccc4c3)c12` [Compound 319, (R)—N-(3,3-Difluoro-1-methylpiperidin-4-yl)-4-methoxy-5-(quinolin-6-yl)pyrrolo[2,1-f][1,2,4]triazin-2-amine], the IC50 was determined as 2.2 nM.

As for `COc1nc(N[C@H]2CCN(C)CC2(F)F)nn2ccc(-c3ccc4ncccc4c3)c12` [Compound 320, (S)—N-(3,3-Difluoro-1-methylpiperidin-4-yl)-4-methoxy-5-(quinolin-6-yl)pyrrolo[2,1-f][1,2,4]triazin-2-amine], the IC50 was 8.2 nM.

As to `COc1nc(N[C@@H]2CCN(C3COC3)CC2(F)F)nn2ccc(-c3ccc4ncccc4c3)c12` [Compound 321, (R)—N-(3,3-Difluoro-1-(oxetan-3-yl)piperidin-4-yl)-4-methoxy-5-(quinolin-6-yl)pyrrolo[2,1-f][1,2,4]triazin-2-amine], the IC50 is 2.1 nM.

For `COc1nc(N[C@H]2CCN(C3COC3)CC2(F)F)nn2ccc(-c3ccc4ncccc4c3)c12` [Compound 322, (S)—N-(3,3-Difluoro-1-(oxetan-3-yl)piperidin-4-yl)-4-methoxy-5-(quinolin-6-yl)pyrrolo[2,1-f][1,2,4]triazin-2-amine], the IC50 came out at 6.6 nM.
